Counter-ions that a name gives are not always drawn.
How the values were obtained:
[1] = system: Lassa GP-pseudotyped-virus; assay: microbe, parasite or virus in culture; format: cell-based, Lassa fever virus; settings: for EC50: Human immunodeficiency virus 1, read-out: Activity (EC50 in μM vs. pseudotyped virus) Lassa
[2] = system: Junín pseudotyped virus; assay: organism not typed; format: cell-based; settings: read-out: Activity (EC50 in μM vs. pseudotyped virus) Junín
[3] = system: Machupo pseudotyped virus; assay: organism not typed; format: cell-based; settings: read-out: Activity (EC50 in μM vs. pseudotyped virus) Machupo
[4] = system: VSVg pseudotyped virus; assay: organism not typed; format: cell-based; settings: read-out: Activity (EC50 in μM vs. pseudotyped virus) VSVg
[5] = system: Sabiá pseudotyped virus; assay: organism not typed; format: cell-based; settings: read-out: Activity (EC50 in μM vs. pseudotyped virus) Sabiá
[6] = system: Guanarito pseudotyped virus; assay: organism not typed; format: cell-based; settings: read-out: Activity (EC50 in μM vs. pseudotyped virus) Guanarito

Q: `CCc1ccc(/C=C\c2ccc3c(c2)ncn3-c2ccc(OC(C)C)cc2)cc1` [Compound 9, 5-[(Z)-2-(4-ethylphenyl)vinyl]-1-(4-isopropoxyphenyl)-benzimidazole] was tested. Which EC50 [1] did it give?
A: < 1 µM

Q: What about the EC50 [2] of the same compound?
A: < 1 µM

Q: What about the EC50 [3] of the same compound?
A: < 1 µM

Q: What about the EC50 [4] of the same compound?
A: 10 to 50 µM

Q: What about the EC50 [5] of the same compound?
A: < 1 µM

Q: For `CCc1ccc(/C=C\c2ccc3c(c2)ncn3-c2ccc(OC(C)(C)C)cc2)cc1` [Compound 15, 1-(4-tert-butoxyphenyl)-5-[(Z)-2-(4-ethylphenyl)-vinyl]benzimidazole], which EC50 [1] is on record?
A: < 1 µM

Q: What about the EC50 [4] of the same compound?
A: 10 to 50 µM

Q: And the EC50 [5]?
A: < 1 µM

Q: Which results are given for `CC(C)Oc1ccc(-n2cnc3cc(/C=C\c4ccc(C(C)(C)C)cc4)ccc32)cc1` [Compound 7, 5-[(Z)-2-(4-tert-butylphenyl)vinyl]-1-(4-isopropoxyphenyl)-benzimidazole]?
A: EC50 [1]: < 1 µM; EC50 [2]: < 1 µM; EC50 [3]: < 1 µM; EC50 [4]: 10 to 50 µM; EC50 [5]: < 1 µM

Q: How did the EC50 [6] turn out when `CCOc1ccc(-n2cnc3cc(SCc4ccc(CC)cc4)ccc32)cc1` [Compound 33, 1-(4-ethoxyphenyl)-5-[(4-ethylphenyl)-methylsulfanyl]benzimidazole] was run?
A: < 1 µM

Q: What about the EC50 [1] of the same compound?
A: < 1 µM

Q: What about the EC50 [2] of the same compound?
A: < 1 µM

Q: And the EC50 [3]?
A: < 1 µM

Q: What about the EC50 [4] of the same compound?
A: 10 to 50 µM

Q: What about the EC50 [5] of the same compound?
A: < 1 µM

Q: How did the EC50 [1] turn out when `CCOc1ccc(-n2cnc3cc(/C=C\c4ccc(C(C)(C)O)cc4)ccc32)cc1` [Compound 61, 2-[4-[(Z)-2-[1-(4-ethoxyphenyl)benzimidazol-5-yl]vinyl]phenyl]propan-2-ol] was run?
A: < 1 µM

Q: And the EC50 [2]?
A: < 1 µM

Q: What about the EC50 [3] of the same compound?
A: < 1 µM

Q: And the EC50 [4]?
A: 10 to 50 µM

Q: And the EC50 [5]?
A: < 1 µM

Q: How did the EC50 [1] turn out when `CCOc1ccc(-n2cnc3cc(/C=C\c4ccc(CC)cc4)ccc32)nc1` [Compound 19, 1-(5-ethoxy-2-pyridyl)-5-[(Z)-2-(4-ethylphenyl)vinyl]benzimidazol hydrochloride] was run?
A: < 1 µM

Q: What about the EC50 [2] of the same compound?
A: < 1 µM

Q: And the EC50 [3]?
A: < 1 µM

Q: What about the EC50 [4] of the same compound?
A: 10 to 50 µM

Q: What about the EC50 [5] of the same compound?
A: < 1 µM

Q: With `CCOc1ccc(-n2cnc3cc(/C=C\c4ccc(C(C)(C)C)cc4)ccc32)nc1` [Compound 21, 5-[(Z)-2-(4-tert-butylphenyl)vinyl]-1-(5-ethoxy-2-pyridyl)benzimidazole hydrochloride] as the compound, how does the EC50 [1] read?
A: < 1 µM

Q: What about the EC50 [2] of the same compound?
A: < 1 µM

Q: What about the EC50 [3] of the same compound?
A: < 1 µM

Q: And the EC50 [4]?
A: 10 to 50 µM

Q: What about the EC50 [5] of the same compound?
A: < 1 µM

Q: What does the source list for `CCOc1ccc(-n2cnc3cc(/C=C\c4ccc(CC)cc4)ccc32)cc1` [Compound 2, 1-(4-ethoxyphenyl)-5-[(Z)-2-(4-ethylphenyl)vinyl]benzimidazole]?
A: EC50 [6]: < 1 µM; EC50 value against Lassa GP-pseudotyped-virus [1]: submicromolar; EC50 [1]: < 1 µM; EC50 [2]: < 1 µM; EC50 [3]: < 1 µM; EC50 [4]: 10 to 50 µM; EC50 [5]: < 1 µM

Q: `COc1ccc(-n2cnc3cc(/C=C\c4ccc(C(C)C)cc4)cnc32)cc1` [Compound 24, 6-[(Z)-2-(4-isopropylphenyl)vinyl]-3-(4-methoxyphenyl)imidazo[4,5-b]pyridine] was tested. Which EC50 [1] did it give?
A: < 1 µM

Q: What about the EC50 [2] of the same compound?
A: < 1 µM

Q: What about the EC50 [3] of the same compound?
A: < 1 µM

Q: And the EC50 [4]?
A: 10 to 50 µM

Q: What about the EC50 [5] of the same compound?
A: < 1 µM

Q: For `CCOc1ccc(-n2cnc3cc(/C=C\c4ccc(C(C)(C)C)cc4)ccc32)cc1` [Compound 5, 5-[(Z)-2-(4-tert-butylphenyl)vinyl]-1-(4-ethoxyphenyl)benzimidazole], which EC50 [1] is on record?
A: < 1 µM

Q: And the EC50 [2]?
A: < 1 µM

Q: And the EC50 [3]?
A: < 1 µM

Q: What about the EC50 [4] of the same compound?
A: 10 to 50 µM

Q: And the EC50 [5]?
A: < 1 µM

Q: Which results are given for `CC(C)Oc1ccc(-n2cnc3cc(/C=C\c4ccc(C(=O)O)cc4)ccc32)cc1` [Compound 45, 4-[(Z)-2-[1-(4-isopropoxyphenyl)benzimidazol-5-yl]vinyl]benzoic acid]?
A: EC50 [1]: 10 to 50 µM; EC50 [2]: < 1 µM; EC50 [3]: < 1 µM; EC50 [4]: > 50 µM; EC50 [5]: 1 to 10 µM

Q: How did the EC50 [1] turn out when `CC(C)(C)Oc1ccc(-n2cnc3cc(/C=C\c4ccc(C(C)(C)C)cc4)ccc32)cc1` [Compound 17, 1-(4-tert-butoxyphenyl)-5-[(Z)-2-(4-tert-butylphenyl)vinyl]benzimidazole] was run?
A: < 1 µM

Q: And the EC50 [4]?
A: 10 to 50 µM

Q: What about the EC50 [5] of the same compound?
A: < 1 µM

Q: `CCOc1ccc(-n2cnc3cc(OCc4ccc(CC)cc4)cnc32)cc1` [Compound 31, 3-(4-ethoxyphenyl)-6-[(4-ethylphenyl)-methoxy]imidazo[4,5-b]pyridine] was tested. Which EC50 [6] did it give?
A: < 1 µM

Q: What about the EC50 [1] of the same compound?
A: < 1 µM

Q: What about the EC50 [2] of the same compound?
A: < 1 µM

Q: And the EC50 [3]?
A: < 1 µM

Q: What about the EC50 [4] of the same compound?
A: 10 to 50 µM

Q: And the EC50 [5]?
A: < 1 µM

Q: With `CCOc1ccc(-n2cnc3cc(/C=C\c4ccc(OC(F)(F)F)cc4)ccc32)cc1` [Compound 11, 1-(4-ethoxyphenyl)-5-[(Z)-2-[4-(trifluoromethoxy)phenyl]vinyl]benzimidazole] as the compound, how does the EC50 [1] read?
A: < 1 µM

Q: What about the EC50 [2] of the same compound?
A: < 1 µM

Q: And the EC50 [3]?
A: < 1 µM

Q: And the EC50 [4]?
A: 10 to 50 µM

Q: With `CCC(C)(O)c1ccc(/C=C\c2ccc3c(c2)ncn3-c2ccc(OC(C)C)cc2)cc1` (stereo not drawn) [Compound 50, 2-[4-[(Z)-2-[1-(4-isopropoxyphenyl)benzimidazol-5-yl]vinyl]phenyl]butan-2-ol] as the compound, how does the EC50 [1] read?
A: < 1 µM

Q: What about the EC50 [2] of the same compound?
A: < 1 µM

Q: And the EC50 [3]?
A: < 1 µM

Q: And the EC50 [4]?
A: 1 to 10 µM

Q: Which results are given for `COc1ccc(-n2cnc3cc(OCc4ccc(C(C)C)cc4)cnc32)cc1` [Compound 32, 6-[(4-isopropyl-phenyl)methoxy]-3-(4-methoxyphenyl)imidazo[4,5-b]pyridine]?
A: EC50 [1]: < 1 µM; EC50 [2]: < 1 µM; EC50 [3]: < 1 µM; EC50 [4]: 10 to 50 µM; EC50 [5]: < 1 µM

Q: How did the EC50 [1] turn out when `C=C(C)c1ccc(/C=C\c2ccc3c(c2)ncn3-c2ccc(OC(C)C)cc2)cc1` [Compound 40, 5-[(Z)-2-(4-isopropenylphenyl)-vinyl]-1-(4-isopropoxyphenyl)-benzimidazole] was run?
A: < 1 µM

Q: And the EC50 [2]?
A: < 1 µM

Q: What about the EC50 [3] of the same compound?
A: < 1 µM

Q: And the EC50 [4]?
A: 10 to 50 µM

Q: Which results are given for `CC(C)Oc1ccc(-n2cnc3cc(/C=C\c4ccc(C(C)(C)O)cc4)ccc32)cc1` [Compound 38, 2-[4-[(Z)-2-[1-(4-isopropoxyphenyl)benzimidazol-5-yl]vinyl]phenyl]-propan-2-ol]?
A: EC50 [1]: < 1 µM; EC50 [2]: < 1 µM; EC50 [3]: < 1 µM; EC50 [4]: 1 to 10 µM

Q: For `CC(C)Oc1ccc(-n2cnc3cc(/C=C\c4ccc(C5(O)CCOCC5)cc4)ccc32)cc1` [Compound 59, 4-[4-[(Z)-2-[1-(4-isopropoxyphenyl)benzimidazol-5-yl]vinyl]phenyl]tetrahydropyran-4-ol], which EC50 [1] is on record?
A: < 1 µM

Q: And the EC50 [2]?
A: < 1 µM

Q: And the EC50 [3]?
A: < 1 µM

Q: And the EC50 [4]?
A: 1 to 10 µM

Q: How did the EC50 [6] turn out when `CCOc1ccc(-n2cnc3cc(CCc4ccc(CC)cc4)ccc32)cc1` [Compound 27, 1-(4-ethoxyphenyl)-5-[2-(4-ethylphenyl)-ethyl]benzimidazole] was run?
A: < 1 µM

Q: And the EC50 [1]?
A: < 1 µM

Q: What about the EC50 [2] of the same compound?
A: < 1 µM

Q: What about the EC50 [3] of the same compound?
A: < 1 µM

Q: And the EC50 [4]?
A: > 50 µM

Q: And the EC50 [5]?
A: < 1 µM
